Laboratory results published in paper PMC4922569, “Antifibrotic Effects of the Dual CCR2/CCR5 Antagonist Cenicriviroc in Animal Models of Liver and Kidney Fibrosis” (PLoS ONE, 2016).
Where a name gives a salt, the structure may show the parent alone.

Legend:
[1] = Body and liver weights, NASH model; assay type: in vivo, mouse; settings: mean±SD
Method: NASH was induced in male C57BL/6 mice (Charles River Laboratories, Japan) via subcutaneous injection of 200 μg of streptozotocin 2 days post-birth (causing mild islet inflammation and islet destruction) plus a high-fat diet (57 kcal% fat) from 4 weeks of age (sequentially causing fatty changes to the liver, NASH and fibrosis). From Weeks 6 to 9, three groups (n = 9/group) received vehicle control, CVC20 or CVC100 BID PO (S1 Table). At Week 9, six animals per group were sacrificed for assessment of liver fibrosis and Non-Alcoholic Fatty Liver Disease (NAFLD) Activity Score (NAS). The animals were sacrificed by exsanguination through direct cardiac puncture under ether anesthesia. Study endpoints included: body and liver weights, plasma biochemistry (e.g. ALT and CCL2), extracellular matrix protein in liver tissue (hydroxyproline content), mRNA expression (collagen type 1, tumor necrosis factor-alpha, MCP-1, TIMP1) and histopathological analyses. Blood samples were collected and plasma samples derived for biochemistry assessments. Sections were cut from paraffin blocks of liver tissue, prefixed in Bouin’s solution and stained with H&E for histological examination.
(§1) Body weight (measured before and during treatment) and sacrificed animal body and liver/kidney/spleen weights were recorded.

[2] = test system: CCR2; settings: cited from earlier work
[3] = test system: MCD-induced NASH; settings: cited from earlier work
[4] = Body and liver weights, TAA model; assay type: in vivo, rat; settings: average±SD
Method: Using male Sprague-Dawley rats (n = 72, 10–12 weeks of age; Harlan Laboratories, USA), fibrosis was induced by IP administration of TAA at a dose of 150 mg/kg three times per week for 8 weeks. Rats (n = 4–8/group) received vehicle control, CVC 30 mg/kg/day (CVC30) or CVC100 QD PO during Weeks 0–8 (early intervention), Weeks 4–8 (established fibrosis) or Weeks 8–12 (cirrhosis reversal) and were sacrificed at Weeks 8, 8 or 12, respectively (S1 Table). Study endpoints included: body and liver weights, liver biochemistry (e.g. serum alanine and aspartate aminotransferase [ALT/AST]), extracellular matrix protein expression in liver tissue (collagen type 1 and alpha-SMA), mRNA expression (collagen type 1, alpha-SMA, beta-platelet-derived growth factor-beta receptor, TGF beta-receptor, matrix metalloproteinase 2, tissue inhibitor of metalloproteinases 1 [TIMP1] and 2 [TIMP2]) and liver morphology. For liver-function testing, plasma samples were obtained from blood collected from the vena cava. Livers were sectioned and fixed in 3.7% formalin, embedded in paraffin, cut at […] thickness and stained with hematoxylin and eosin (H&E) for histological examination.
as §1

[5] = cirrhosis reversal, CVC 30 mg/kg/day
[6] = cirrhosis reversal, CVC 100 mg/kg/day
[7] = early intervention, CVC 30 mg/kg/day
[8] = early intervention, CVC 100 mg/kg/day
[9] = established fibrosis, CVC 30 mg/kg/day
[10] = established fibrosis, CVC 100 mg/kg/day

`CCCCOCCOc1ccc(-c2ccc3c(c2)/C=C(/C(=O)Nc2ccc([S@@+]([O-])Cc4cncn4CCC)cc2)CCCN3CC(C)C)cc1` [CVC, cenicriviroc mesylate] gave a Final body weight ([1]; CVC 20 mg/kg/day) of 19.5 ± 2.0 g, a Liver weight ([1]; CVC 20 mg/kg/day) of 1334 ± 99 mg and a Liver-to-body weight ratio ([1]; CVC 20 mg/kg/day) of 6.9±1.0%. The Final body weight ([1]; CVC 100 mg/kg/day) was 18.7 ± 0.9 g, the Liver weight ([1]; CVC 100 mg/kg/day) was 1307 ± 119 mg and the Liver-to-body weight ratio ([1]; CVC 100 mg/kg/day) was 7.0±0.8%. The “Occupancy for CCR2 (blood and spleen) in proinflammatory monocytes” value ([2]; CVC 250 nM, murine cryopreserved PBMC ex vivo) was greater than 90%, the CCR2 occupancy ([2]; CVC concentrations of 250 nmol/L or higher, mouse monocytes and macrophages ex vivo) was greater than 87% and the “Infiltration of Ly6Chi monocyte-derived macrophages into the liver” value ([3]; MCD model, preliminary data) was “significantly decreased”. For the same molecule, the “Hepatic fibrosis (Sirius red staining and hydroxyproline content)” value ([3]; chronic MCD model of NASH) was “reduced”, the “Steatohepatitis, assessed by histological NAFLD activity score” value ([3]; chronic MCD model of NASH) was “significantly ameliorated” and the Final body weight [4, 5] was 390.3 ± 9.3 g. For the same molecule, the Liver weight [4, 5] was 19 ± 0.7 g, the Liver-to-body weight ratio [4, 5] was 4.9±0.2% and the Final body weight [4, 6] was 386.4 ± 4.9 g. The Liver weight [4, 6] was 18.5 ± 0.7 g, the Liver-to-body weight ratio [4, 6] was 4.8±0.2% and the Final body weight [4, 7] was 330.9 ± 6.4 g. The Liver weight [4, 7] was 17.9 ± 1.6 g, the Liver-to-body weight ratio [4, 7] was 5.4±0.5% and the Final body weight [4, 8] was 347.2 ± 6.9 g. For the same molecule, the Liver weight [4, 8] was 17.5 ± 0.5 g, the Liver-to-body weight ratio [4, 8] was 5.0±0.1% and the Final body weight [4, 9] was 342.0 ± 7.7 g. It also gave a Liver weight [4, 9] of 15.6 ± 0.6 g, a Liver-to-body weight ratio ([4]; established fibrosis, CVC 30 mg/kg/day, p < 0.05 vs vehicle control) of 4.6±0.1 % and a Final body weight [4, 10] of 327.3 ± 7.8 g. It also gave a Liver weight [4, 10] of 15.8 ± 0.9 g and a Liver-to-body weight ratio [4, 10] of 4.8±0.2%.
